Legend:
[1] = system: Human immunodeficiency virus 1; test: Antiviral activity against HIV1 3B infected in human MT4 cells assessed as protection against virus-induced cytopathogenicity after 4 days by MTT assay; assay type: functional, organism-based; details: Human immunodeficiency virus 1, 3B, MT4, 96 h
[2] = Cytotoxicity against human MT4 cells assessed as reduction of cell viability after 4 days by MTT assay; assay type: cell-based
[3] = system: Vaccinia virus; test: Antiviral activity against Vaccinia virus assessed as reduction of virus plaque formation by cell based assay; assay type: functional, organism-based; details: Orthopoxvirus vaccinia
[4] = system: Mammalian orthoreovirus 1; test: Antiviral activity against Reovirus 1 assessed as protection against virus-induced cytopathogenicity by cell based MTT assay; assay type: functional, organism-based
[5] = system: Bovine viral diarrhea virus 1; test: Antiviral activity against Bovine viral diarrhea virus infected in MDBK cells assessed as protection against virus-induced cytopathogenicity after 2 to 3 days by MTT assay; assay type: functional, organism-based; details: Bovine viral diarrhea virus isolates and strains
[6] = system: Coxsackievirus B2; test: Antiviral activity against Coxsackievirus B2 infected in african green monkey Vero cells assessed as reduction of virus plaque formation after 3 days; assay type: functional, organism-based; details: Enterovirus B, 72 h
[7] = system: Respiratory syncytial virus; test: Antiviral activity against Respiratory syncytial virus assessed as reduction of virus plaque formation by cell based assay; assay type: functional, organism-based; details: human respiratory syncytial virus
[8] = system: Yellow fever virus; test: Antiviral activity against Yellow fever virus infected in BHK-21 cells assessed as protection against virus-induced cytopathogenicity after 2 to 3 days by MTT assay; assay type: functional, organism-based
[9] = system: Human immunodeficiency virus 1; test: Antiviral activity against NNRTI-resistant HIV1 N119 with reverse transcriptase Y181C mutant infected in human MT4 cells assessed as protection against virus-induced cytopathogenicity after 4 days by MTT assay; assay type: functional, organism-based; details: Human immunodeficiency virus 1, N119, MT4, 96 h
[10] = system: Vesicular stomatitis virus; test: Antiviral activity against Vesicular stomatitis virus assessed as reduction of virus plaque formation by cell based assay; assay type: functional, organism-based
[11] = system: Human immunodeficiency virus 1; test: Antiviral activity against NNRTI-resistant HIV1 A17 with reverse transcriptase K103N, Y181C mutant infected in human MT4 cells assessed as protection against virus-induced cytopathogenicity after 4 days by MTT assay; assay type: functional, organism-based; details: Human immunodeficiency virus 1, A17, MT4, 96 h
[12] = system: Poliovirus 1; test: Antiviral activity against Poliovirus Sb-1 infected in african green monkey Vero cells assessed as reduction of virus plaque formation after 3 days; assay type: functional, cell-based; details: Enterovirus C, Sabin, 72 h
[13] = system: Human immunodeficiency virus 1; test: Antiviral activity against HIV1 EFV with reverse transcriptase K103R, V179D, P225H mutant infected in human MT4 cells assessed as protection against virus-induced cytopathogenicity after 4 days by MTT assay; assay type: functional, organism-based; details: Human immunodeficiency virus 1, EFV, MT4, 96 h
[14] = system: Human immunodeficiency virus; test: Inhibition of HIV reverse transcriptase RNA-dependent polymerase activity after 30 mins by fluorescent microplate assay

Row | Compound | EC50 [1] [µM] | CC50 at 96 h [2] [µM] | EC50 [3] [µM] | EC50 [4] [µM] | EC50 [5] [µM] | EC50 [6] [µM] | EC50 [7] [µM] | EC50 [8] [µM] | EC50 [9] [µM] | EC50 [10] [µM] | EC50 [11] [µM] | EC50 [12] [µM] | EC50 [13] [µM] | Activity [14]
1 | c1cnc2c(c1)Cc1nn[nH]c1C2 | > 100 | > 100 | > 100 | > 100 | > 100 | > 100 | > 100 | > 100 | > 100 | > 100 | > 100 | > 100 | > 100 | –
2 | c1c2c(cc3[nH]nnc13)NCCC2 | > 100 | > 100 | > 100 | > 100 | > 100 | > 100 | > 100 | > 100 | > 100 | > 100 | > 100 | > 100 | > 100 | –
3 | [O-][n+]1n[nH]c2c(Cl)c3ncccc3cc21 | > 100 | > 100 | > 100 | > 100 | > 100 | > 100 | > 100 | > 100 | > 100 | > 100 | > 100 | > 100 | > 100 | –
4 | c1cnc2cc3[nH]nnc3cc2c1 | > 100 | > 100 | > 100 | > 100 | > 100 | > 100 | > 100 | > 100 | > 100 | > 100 | > 100 | > 100 | > 100 | –
5 | [O-][n+]1n[nH]c2c1Cc1cccnc1C2 | 12 | > 100 | > 100 | > 100 | > 100 | > 100 | > 100 | > 100 | 4 | > 100 | 10 | > 100 | 9 | Dose-dependent effect
6 | Cc1ccnc2c1NC(=O)c1cccnc1N2C1CC1 [NEVIRAPINE] | – | > 100 | – | – | – | – | – | – | 7 | – | > 20 | – | > 20 | –
7 | O=C1Nc2ccc(Cl)cc2[C@@](C#CC2CC2)(C(F)(F)F)O1 [EFAVIRENZ] | – | 45 | – | – | – | – | – | – | – | – | 0.06 | – | 7 | –
8 | CCOn1nnc2c1Cc1cccnc1C2 | > 100 | > 100 | > 100 | > 100 | > 100 | > 100 | > 100 | > 100 | > 100 | > 100 | > 100 | > 100 | > 100 | –

Source: ChEMBL document CHEMBL1154169, “Activity and molecular modeling of a new small molecule active against NNRTI-resistant HIV-1 mutants” (Eur J Med Chem, 2009)
